According to patent US20140303242A1, “Sparstolonin B Based Pharmaceutical Agent to Treat Pathological Angiogensis” (University of South Carolina, priority 2013, published 2014):
Entries after “also recorded” stand apart in the source; their conditions may differ.

Assays:
[1] = test system: chick chorioallantoic membrane (CAM); assay: Chick chorioallantoic membrane (CAM) assay; format: in vivo; details: methylcellulose disc, 100 micromolar SsnB
Protocol: To investigate the effects of SsnB on in vivo angiogenesis, a chick chorioallantoic membrane (CAM) assay was utilized. Chick embryos were exposed to methylcelluose discs containing vehicle control (DMSO) or 100 micromolar SsnB.
Methylcellulose discs were created with a solution of 0.5% methylcellulose (diluted in sterile deionized water). A methylcellulose solution of 100 micromolar SsnB was made by adding 1.1 microliters of stock SsnB (93 mM) to 1 ml 0.5% methylcellulose. A vehicle control solution was created by adding 1 microliter of dimethyl sulfoxide (DMSO) to 1 ml 0.5% methylcellulose. Discs were created by placing 20 microliter droplets of SsnB or vehicle control solution onto polytetrafluoroethylene tape (to minimize sticking during drying) and allowed to dry under a laminar flow hood.
The fertilized eggs were placed in a humidified egg incubator with forced air circulation at 37° C. The eggs were automatically rotated every three hours. After 4 days of incubation, the eggs were removed and cracked. Chick embryos with intact yolks were placed in 100 mm petri plates. Each petri plate was placed in a weigh boat containing 13 ml Moscona's buffer and covered with cellophane wrap with two holes for air circulation. The plates were placed in a water-jacketed incubator (37 C, 5% CO2) for 2 days. After 2 days of incubation, the methylcellulose discs containing either SsnB or vehicle control were placed on top of the CAM of each embryo in the right upper quadrant in an area near the allantoic vessels. After 2 additional days of incubation, the CAMs were examined and photographed with a dissecting stereomicroscope. Images were taken of areas containing the discs and non-treated regions. Each group contained seven embryos (calculated with PS 3.0.5 software, effect size of 50%, standard deviation of 30%, statistical power of 0.8, and α=0.05). The CAM assay was completed two times.
Images were analyzed with ImagePro Plus software. Blood vessel length and branching number were utilized to measure the effect of SsnB on angiogenesis. The vessel length was measured for areas containing the discs and non-treated regions. Normalized vessel length was calculated by dividing the length values of the treated regions by those of the non-treated regions. The same process was repeated for measuring the branching number.

[2] = test system: HCAECs; assay: Microarray gene expression analysis (HCAECs); format: cell-based, human; details: 24 h
Protocol: Confluent plates (100×20 mm polystyrene, tissue culture-treated petri plates coated with 0.1% gelatin, 75% confluent) of HUVECs and HCAECs (four plates for HUVECs, n=2, and six plates for HCAECs, n=3) were chosen for the microarray experiments. Half of the plates received complete growth medium (10% fetal bovine serum with endothelial mitogen) containing vehicle control (0.1% DMSO), and the remaining plates received complete growth medium containing 100 μM SsnB. The plates were incubated for 24 h to allow SsnB to have an effect on cellular gene expression. Following incubation, RNA isolation was completed with the RNeasy Mini kit from Qiagen. The cells were lysed, and RNA was isolated by using the RNeasy spin columns and following the protocol provided by Qiagen. Purified RNA was sent to the Medical University of South Carolina Proteogenomics Facility for microarray analysis. The GeneChip Human Genome U133 Plus 2.0 Array was utilized to track changes in gene expression due to SsnB treatment. Complete data was uploaded to the NCBI Gene Expression Omnibus database (accession number GSE44598).
(§1) Microarray data analysis, including data normalization (robust multi-array average), identification of differentially expressed genes (comparative analyses with dChip software), and heat map construction, was carried out to determine how SsnB affects gene expression and affected pathways (n=2 for HUVECs and n=3 for HCAECs). After a careful analysis of the microarray data, several key genes were chosen for qRT-PCR to verify the gene expression results. The genes were chosen based on the following criteria: fold change ≧2, p<0.05, unpaired t-test with a false discovery rate approximating 0%, appearing in both data sets (HUVECs and HCAECs), and gene function relating to cell proliferation and/or angiogenesis. For qRT-PCR, the expression levels were normalized to the housekeeping gene GAPDH, and RNA levels were compared between groups with the ΔΔCt method.

[3] = test system: human aortic smooth muscle cells; assay: Cytotoxicity on human aortic smooth muscle cells; format: cell-based; details: concentrations up to 100 μM
[4] = test system: HUVECs; assay: Cell cycle analysis, propidium iodide flow cytometry; format: cell-based, human
Protocol: Cell cycle analysis was performed using propidium iodide staining and flow cytometry. HUVECs (approximately 75% confluent) cultured in 6 well polystyrene culture plates coated with 0.1% gelatin were serum starved for 24 hours in low serum medium containing 0.5% fetal bovine serum and no endothelial cell mitogen to synchronize the cells in the G1/S phase. After 24 hours, the low serum medium was replaced with treatments of either 100 μM SsnB or vehicle control (0.1% DMSO) diluted in complete growth medium (10% fetal bovine serum with endothelial cell mitogen) in triplicate. The treated cells were incubated for 24, 30, and 36 hours. After incubation, the cells were trypsinized, transferred to 5 ml polysytrene round bottom tubes (12×75 mm), and centrifuged. The medium was aspirated, and the cells were washed with PBS. After fixing the cells with ice-cold 70% ethanol for 15 min, the cells were centrifuged and stained with propidium iodide for 30 min. The samples were then analyzed with a flow cytometer (Beckman Coulter FC500). The unstained and stained cell groups were used to calibrate the settings on the flow cytometer. The data were collected and analyzed with ModFit software.

[5] = test system: HUVECs; assay: Real time RT-PCR gene expression (HUVECs); format: cell-based, human; details: 24 h
Protocol: After a careful analysis of the microarray data, key genes (CDC6, CCNE2, KITLG, ALDH3A1, CCNB1, CDC2, HMMR, DIAPH3, ANLN, and CDKN3) were chosen for quantitative real-time PCR (qRT-PCR) to verify the gene expression results. HCAECs and HUVECs were exposed to SsnB or vehicle control for 24 h (as previously described in the microarray section). For RT-PCR, RNA was isolated from the cells with the RNeasy Mini kit as described previously. After forward and reverse primer kits (Qiagen, Valencia, Calif.) were selected, the RNA was amplified. The one-step RT-PCR reactions were completed on the BioRad iCycler thermal cycler system in the Instrumentation Resource Facility at the USC School of Medicine. The expression levels were normalized, and RNA levels were quantified.
as §1

[6] = synchronized HUVECs, 100 μM SsnB, 24, 30 and 36 hours, vs vehicle control
[7] = SsnB vs vehicle control, normalized to GAPDH

O=c1occ2c3c(ccc(O)c13)Oc1ccc(O)cc1-2 [SsnB, Sparstolonin B]
blood vessel diameter and size ([1]; 2 days): decrease | normalized branch number ([1]; 2 days, vs vehicle control): significant decrease; also recorded: significant reduction | normalized blood vessel length (capillary length) ([1]; 2 days, vs vehicle control, p<0.05): significant decrease; also recorded: significant reduction | viability or morphology of the embryos ([1]; relative to vehicle control): no effect | ALDH3A1 Microarray Fold change value ([2]; 100 μM SsnB vs vehicle control): 8.8 | ANLN Microarray Fold change value ([2]; 100 μM SsnB vs vehicle control): 0.11 | CCNB1 Microarray Fold change value ([2]; 100 μM SsnB vs vehicle control): 0.16 | CCNE2 Microarray Fold change value ([2]; 100 μM SsnB vs vehicle control): 0.38 | CDC2 Microarray Fold change value ([2]; 100 μM SsnB vs vehicle control): 0.20 | CDC6 Microarray Fold change value ([2]; 100 μM SsnB vs vehicle control): 0.18 | CDKN3 Microarray Fold change value ([2]; 100 μM SsnB vs vehicle control): 0.18 | DIAPH3 Microarray Fold change value ([2]; 100 μM SsnB vs vehicle control): 0.38 | HMMR Microarray Fold change value ([2]; 100 μM SsnB vs vehicle control): 0.20 | KITLG Microarray Fold change value ([2]; 100 μM SsnB vs vehicle control): 2.1 | number of differentially expressed genes in response to SsnB exposure ([2]; 100 μM, fold change ≧2, p<0.05): 356 genes | cytotoxic effects [3]: does not exhibit cytotoxic effects | G2/M blockage ([4]; non-synchronized (no serum starvation) HUVECs): G2/M blockage was observed | percentage of cells in the G1 phase [4, 6]: increase | percentage of cells in the S phase [4, 6]: decrease | ALDH3A1 expression (qRT-PCR) [5]: 1280 % of controls | KITLG expression (qRT-PCR) [5]: 400 % of controls | ALDH3A1 PCR 2^ΔΔCt value [5, 7]: 12.8 | ANLN PCR 2^ΔΔCt value [5, 7]: 0.20 | CCNB1 PCR 2^ΔΔCt value [5, 7]: 0.40 | CCNE2 PCR 2^ΔΔCt value [5, 7]: 0.64 | CDC2 PCR 2^ΔΔCt value [5, 7]: 0.14 | CDC6 PCR 2^ΔΔCt value [5, 7]: 0.35 | CDKN3 PCR 2^ΔΔCt value [5, 7]: 0.18 | DIAPH3 PCR 2^ΔΔCt value [5, 7]: 0.19 | HMMR PCR 2^ΔΔCt value [5, 7]: 0.24 | KITLG PCR 2^ΔΔCt value [5, 7]: 4.0
